Data taken from patent US20220378923A1, “BET DEGRADER” (KYOWA KIRIN CO., LTD., priority 2019, published 2022).

target: T1, interaction between BRD2 and E3 ligase DCAF16 (Homo sapiens, UniProt P25440); assay: Verification of BET-DCAF16 interaction, comparative test with known compounds (Test Example 8); format: cell-based; details: test compound 1.0 μmol/L; HEK293 cells expressing Nluc-BRD2 and DCAF16-HaloTag; MLN4924 instead of bortezomib; substrate diluted 200-fold
T1 construct: expressed in transfected cells; host or cells: HEK293
T1 sequence (P25440 whole entry): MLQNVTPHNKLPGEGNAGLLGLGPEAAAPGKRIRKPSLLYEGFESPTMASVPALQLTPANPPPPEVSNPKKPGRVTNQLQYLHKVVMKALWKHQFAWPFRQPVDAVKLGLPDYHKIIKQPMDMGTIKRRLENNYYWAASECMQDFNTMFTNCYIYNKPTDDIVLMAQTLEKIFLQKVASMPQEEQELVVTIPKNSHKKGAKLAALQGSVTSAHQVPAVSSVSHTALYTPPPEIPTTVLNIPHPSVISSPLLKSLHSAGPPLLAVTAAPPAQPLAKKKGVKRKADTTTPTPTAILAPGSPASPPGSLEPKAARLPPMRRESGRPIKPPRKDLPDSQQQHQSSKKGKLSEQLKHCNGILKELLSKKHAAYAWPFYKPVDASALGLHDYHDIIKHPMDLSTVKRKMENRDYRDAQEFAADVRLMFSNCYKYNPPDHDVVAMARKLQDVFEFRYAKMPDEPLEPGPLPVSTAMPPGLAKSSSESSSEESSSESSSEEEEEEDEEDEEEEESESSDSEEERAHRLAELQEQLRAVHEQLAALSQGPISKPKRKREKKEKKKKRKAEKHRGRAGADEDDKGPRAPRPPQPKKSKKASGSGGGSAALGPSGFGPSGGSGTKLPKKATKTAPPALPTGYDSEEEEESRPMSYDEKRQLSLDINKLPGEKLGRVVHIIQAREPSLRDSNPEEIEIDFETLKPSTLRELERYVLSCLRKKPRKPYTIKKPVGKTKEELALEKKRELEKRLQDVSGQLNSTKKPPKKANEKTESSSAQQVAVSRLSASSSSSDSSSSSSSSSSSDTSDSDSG
T1 sequence (Q9NXF7 whole entry partner): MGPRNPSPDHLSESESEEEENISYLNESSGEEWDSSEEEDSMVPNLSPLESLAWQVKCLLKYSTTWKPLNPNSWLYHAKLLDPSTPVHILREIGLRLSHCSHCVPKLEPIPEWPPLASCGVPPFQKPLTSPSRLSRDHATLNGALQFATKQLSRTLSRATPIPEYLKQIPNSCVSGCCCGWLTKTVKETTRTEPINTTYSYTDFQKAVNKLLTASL
Method: Cultured HEK293 cells were washed with DPBS, no calcium, no magnesium (DPBS: Code No. 14190144, Thermo Fisher Scientific) and harvested using TrypLE™ Express Enzyme (1×), phenol red (TrypLE: Code No. 12605036, Thermo Fisher Scientific), and prepared to be 4.0×10^5 cells/mL in DMEM. A volume of 12 mL of the cell suspension was seeded in a Falcon® 100 mm×20 mm cell culture dish and cultured in a carbon dioxide gas incubator at 37° C. for 6 hours. For one dish, 12 μg of pFC27K_DCAF16, 0.12 μg of p FN31A_BRD2, 48 μL of FuGENE® HD Transfection Reagent (Code No. E2312, Promega) were added to 600 μL of Opti-MEM™ I Reduced Serum Medium, no phenol red (Opti-MEM: Code No. 11058021, Thermo Fisher Scientific) and mixed. The mixture was allowed to stand for 15 minutes and added to HEK293 cells. After 20 hours, the cells were washed with DPBS, no calcium, no magnesium, harvested from the dish using TrypLE, and then neutralized in DMEM. After centrifugation, the supernatant was discarded, and the cells were prepared to be 2.2×10^5 cells/mL using Opti-MEM containing 4% FBS. HaloTag® NanoBRET™ 618 Ligand contained in NanoBRET™ Nano-Glo® Detection System (Code No. N1662, Promega) and bortezomib as a proteasome inhibitor were added to be a 1000-fold dilution. In addition, a group was prepared to which DMSO was added instead of HaloTag® NanoBRET™ 618 Ligand. 90 μL of the cell suspension was seeded in CulturPlate-96 (Code No. 6005688, PerkinElmer), and allowed to stand in a carbon dioxide gas incubator at 37° C. for 30 minutes. A volume of 10 mmol/L of a solution of the test compound in DMSO was adjusted to be 100 μmol/L with Opti-MEM, 10 μL of the solution was added to each well, and then the mixture was allowed to stand in a carbon dioxide gas incubator at 37° C. for 2 hours. At this time, all the groups were prepared so that the final concentration of DMSO was 0.1 vol % including the group to which the test compound was not added. NanoBRET™ Nano-Glo® Substrate included in the NanoBRET™ Nano-Glo® Detection System was diluted 100-fold with Opti-MEM. After adding 25 μL of the dilution each and stirring for 30 seconds, measurement was performed with an Emission Filter of 460 nm and 620 nm using EnVision (PerkinElmer). The BRET ratio of 10 μmol/L for each test compound was calculated using the following formula. The experiment was performed by n=3 and the average value was calculated.
BRET ratio={(A/B)−(C/D)}×1000 • A: value at 620 nm filter of the well with addition of test compound and 618 Ligand • B: value at 460 nm filter of the well with addition of test compound and 618 Ligand • C: value at 620 nm filter of the well without addition of test compound or 618 Ligand • D: value at 460 nm filter of the well without addition of test compound or 618 Ligand
For comparison with the known comparative compound 1, the enhancement of the BET-DCAF16 interaction was verified by the same method as in test example 7. However, for the purpose of system optimization, bortezomib was changed to Neddylation inhibitor MLN4924 (Code No. HY-10484, MedChem Express), and the dilution ratio of NanoBRET™ Nano-Glo® Substrate was set to 200-fold. The BRET ratio of 1.0 μmol/L of each test compound was calculated, and the results are shown as in Table 23 below.

Row | SMILES | BRET Ratio
1 | CCC(=O)N1c2ccccc2[C@H](Nc2ccc(C(=O)NCCCNC(=O)c3ccc(C4=N[C@@H](CC(=O)OC(C)(C)C)c5nnc(C)n5-c5sc(C)c(C)c54)cc3)cc2)C[C@@H]1C [Compound 1h, tert-Butyl 2-[(S)-2,3,9-trimethyl-4-(4-{[3-(4-{[(2S,4R)-2-methyl-1-propionyl-1,2,3,4-tetrahydroquinolin-4-yl]amino}benzamide)propyl]carbamoyl}phenyl)-6H-thieno[3,2-f][1,2,4]triazolo[4,3-a][1,4]diazepin-6-yl]acetate] | 10.95
2 | Cc1sc2c(c1C)C(c1ccc(C(=O)NCc3cn(-c4ccc(C5=N[C@@H](CC(=O)OC(C)(C)C)c6nnc(C)n6-c6sc(C)c(C)c65)cc4)nn3)cc1)=N[C@@H](CC(=O)OC(C)(C)C)c1nnc(C)n1-2 [Compound 3b, tert-Butyl 2-[(S)-4-(4-{4-[(4-{(S)-6-[2-(tert-butoxy)-2-oxoethyl]-2,3,9-trimethyl-6H-thieno[3,2-f][1,2,4]triazolo[4,3-a][1,4]diazepin-4-yl}benzamide)methyl]-1H-1,2,3-triazol-1-yl}phenyl)-2,3,9-trimethyl-6H-thieno[3,2-f][1,2,4]triazolo[4,3-a][1,4]diazepin-6-yl]acetate] | 9.69
3 | CCC(=O)N1c2ccccc2[C@H](Nc2ccc(-n3cc(CCNC(=O)[C@H]4CC[C@H](N[C@@H]5C[C@H](C)N(C(=O)CC)c6ccccc65)CC4)nn3)cc2)C[C@@H]1C [Compound 8a, (1R,4r)-4-(((2S,4R)-2-Methyl-1-propionyl-1,2,3,4-tetrahydroquinolin-4-yl)amino)-N-(2-(1-(4-(((2S,4R)-2-methyl-1-propionyl-1,2,3,4-tetrahydroquinolin-4-yl)amino)phenyl)-1H-1,2,3-triazol-4-yl)ethyl)cyclohexane-1-carboxamide] | 12.45
4 | CCC(=O)N1c2ccccc2[C@H](Nc2ccc(NC(=O)CCCC(=O)NC3CCN(Cc4cc(O)cc(-c5c(C)noc5C)c4)CC3)cc2)C[C@@H]1C [Compound 12c, N^1-(1-(3-(3,5-Dimethylisoxazol-4-yl)-5-hydroxybenzyl)piperidin-4-yl)-N^5-(4-(((2S,4R)-2-methyl-1-propionyl-1,2,3,4-tetrahydroquinolin-4-yl)amino)phenyl)glutaramide] | 13.16
5 | CCC(=O)N1c2ccccc2[C@H](Nc2ccc(NC(=O)CCCC(=O)Nc3ccc(Cn4c(C(=O)OCCN(C)C)cc5c4CCCC5=O)cc3)cc2)C[C@@H]1C [Compound 15a, 2-(Dimethylamino)ethyl 1-(4-(5-((4-(((2S,4R)-2-methyl-1-propionyl-1,2,3,4-tetrahydroquinolin-4-yl)amino)phenyl)amino)-5-oxopentanamide)benzyl)-4-oxo-4,5,6,7-tetrahydro-1H-indole-2-carboxylate] | 9.59
6 | CCC(=O)N1c2ccccc2[C@H](Nc2ccc(-n3cc(CNC(=O)c4ccc(Cn5c(CC)cc6c5CCCC6=O)cc4)nn3)cc2)C[C@@H]1C [Compound 15f, 4-((2-Ethyl-4-oxo-4,5,6,7-tetrahydro-1H-indol-1-yl)methyl)-N-((1-(4-(((2S,4R)-2-methyl-1-propionyl-1,2,3,4-tetrahydroquinolin-4-yl)amino)phenyl)-1H-1,2,3-triazol-4-yl)methyl)benzamide] | 12.43
7 | CCNC(=O)C[C@@H]1N=C(c2ccc(SCCCCSc3ccc(C4=N[C@@H](CC(=O)NCC)c5nnc(C)n5-c5ccc(OC)cc54)cc3)cc2)c2cc(OC)ccc2-n2c(C)nnc21 [compound 1, 2,2′-((4S,4'S)-6,6′-((butane-1,4-diylbis(sulfanediyl))bis(4,1-phenylene))bis(8-methoxy-1-methyl-4H-benzo[f][1,2,4]triazolo[4,3-a][1,4]diazepine-6,4-diyl))bis(N-ethylacetamide), reference compound] | 1.93

More lines, now with the values ahead:

Row | BRET Ratio | SMILES
8 | 14.93 | CCC(=O)N1c2ccccc2[C@H](Nc2ccc(C(=O)NCC(=O)CNC(=O)c3ccc(N[C@@H]4C[C@H](C)N(C(=O)CC)c5ccccc54)cc3)cc2)C[C@@H]1C [Compound 1l, N,N′-(2-Oxopropane-1,3-diyl)bis(4-{[(2S,4R)-2-methyl-1-propionyl-1,2,3,4-tetrahydroquinolin-4-yl]amino}benzamide)]
9 | 14.46 | CCC(=O)N1c2ccccc2[C@H](Nc2ccc(C(=O)NCc3cn(-c4ccc(N[C@@H]5C[C@H](C)N(C(=O)CC)c6ccccc65)cc4)nn3)cc2)C[C@@H]1C [Compound 3a, 4-{[(2S,4R)-2-Methyl-1-propionyl-1,2,3,4-tetrahydroquinolin-4-yl]amino}-N-{[1-(4-{[(2S,4R)-2-methyl-1-propionyl-1,2,3,4-tetrahydroquinolin-4-yl]amino}phenyl)-1H-1,2,3-triazol-4-yl]methyl}benzamide]
10 | 9.58 | CCC(=O)N1c2ccccc2[C@H](Nc2ccc(C(=O)N3CCn4c(-c5ccc(N[C@@H]6C[C@H](C)N(C(=O)CC)c7ccccc76)cc5)cnc4C3)cc2)C[C@@H]1C [Compound 3e, 1-[(2S,4R)-2-Methyl-4-({4-[3-(4-{[(2S,4R)-2-methyl-1-propionyl-1,2,3,4-tetrahydroquinolin-4-yl]amino}phenyl)-5,6,7,8-tetrahydroimidazo[1,2-a]pyrazine-7-carbonyl]phenyl}amino)-3,4-dihydroquinolin-1(2H)-yl]propan-1-one]
11 | 12.62 | CCC(=O)N1c2ccccc2[C@H](Nc2ccc(NC(=O)CCCC(=O)Nc3ccc(N[C@@H]4C[C@H](C)N(C(=O)CC)c5ccccc54)cc3)cc2)C[C@@H]1C [Compound 6k, N^1,N^5-Bis(4-(((2S,4R)-2-methyl-1-propionyl-1,2,3,4-tetrahydroquinolin-4-yl)amino)phenyl)glutaramide]
12 | 13.00 | CCC(=O)N1c2ccccc2[C@H](Nc2ccc(NC(=O)CCCC(=O)NC3CCC(N[C@@H]4C[C@H](C)N(C(=O)CC)c5ccccc54)CC3)cc2)C[C@@H]1C (stereo partly drawn) [Compound 7o, N^1-((1R,4r)-4-(((2S,4R)-2-Methyl-1-propionyl-1,2,3,4-tetrahydroquinolin-4-yl)amino)cyclohexyl)-N^5-(4-(((2S,4R)-2-methyl-1-propionyl-1,2,3,4-tetrahydroquinolin-4-yl)amino)phenyl)glutaramide]
13 | 11.57 | CCC(=O)N1c2ccccc2[C@H](Nc2ccc(NC(=O)N3CCN(C(=O)C4CCC(N[C@@H]5C[C@H](C)N(C(=O)CC)c6ccccc65)CC4)CC3)cc2)C[C@@H]1C (stereo partly drawn) [Compound 7p, 4-((1R,4r)-4-(((2S,4R)-2-Methyl-1-propionyl-1,2,3,4-tetrahydroquinolin-4-yl)amino)cyclohexane-1-carbonyl)-N-(4-(((2S,4R)-2-methyl-1-propionyl-1,2,3,4-tetrahydroquinolin-4-yl)amino)phenyl)piperazine-1-carboxamide]
14 | 11.91 | CCC(=O)N1c2ccccc2[C@H](Nc2ccc(NC(=O)CNC(=O)N[C@H]3CC[C@H](N[C@@H]4C[C@H](C)N(C(=O)CC)c5ccccc54)CC3)cc2)C[C@@H]1C [Compound 8j, 2-(3-((1R,4R)-4-(((2S,4R)-2-Methyl-1-propionyl-1,2,3,4-tetrahydroquinolin-4-yl)amino)cyclohexyl)ureido)-N-(4-(((2S,4R)-2-methyl-1-propionyl-1,2,3,4-tetrahydroquinolin-4-yl)amino)phenyl)acetamide]
